Earlier results as cited in patent publication US20250263624A1, “Environmentally friendly metal cutting oil with high load-bearing and high anti-wear properties” (Shenyang Peite Technology Co., Ltd, priority 2025, published 2025).

- Water solubility: Insoluble
Compound: CC(C)CCCCCOC(=O)CCCCCCCCC(=O)OCCCCCC(C)C [diisooctyl sebacate]
